How the values were obtained:
[1] = molecular target: human inducible NO-synthase (Homo sapiens, UniProt P35228); test: Measurement of inducible NO-synthase activity ([3H]arginine conversion); format: biochemical; conditions: crude cytosolic fraction containing human inducible NO-synthase; 0.1 μM arginine; 45 to 60 min at 37° C; read-out: Inhibition of iNOS activity [measured as −logIC50 (mol/l)] (converted)
Experimental: Measurement of Inducible NO-Synthase Activity
The assay is performed in 96-well microtiter F-plates (Greiner, Frickenhausen, FRG) in a total volume of 100 μl in the presence of 100 nM calmodulin, 226 μM CaCl2, 477 μM MgCl2, 5 μM flavin-adenine-dinucleotide (FAD), 5 μM flavin mononucleotide (FMN), 0.1 mM NADPH, 7 mM glutathione, 10 μM BH4 and 100 mM HEPES pH 7.2. Arginine concentrations are 0.1 μM for enzyme inhibition experiments. 150000 dpm of [^3H]arginine are added to the assay mixture. Enzyme reaction is started by the addition of 4 μg of a crude cytosolic fraction containing human inducible NO-synthase and the reaction mixture is incubated for 45 to 60 min at 37° C. Enzyme reaction is stopped by adding 10 μl of 2M MES-buffer pH 5,0. 50 μl of the incubation mixture are transferred into a MADP N65 filtration microtiter plate (Millipore, Eschborn, FRG) containing already 50 μl of AG-50W-X8 cation exchange resin (Biorad, München, FRG). The resin in the Na loaded form is preequilibrated in water and 70 μl (corresponding to 50 μl dry beads) are pipetted under heavy stirring with a 8 channel pipette into the filtration plate. After pipetting 50 μl of the enzyme reaction mixture onto the filtration plates, the plates are placed on a filtration manifold (Porvair, Shepperton, UK) and the flow through is collected in Pico scintillation plates (Packard, Meriden, Conn.). The resin in the filtration plates is washed with 75 μl of water (1×50 μl and 1×25 μl) which is also collected in the same plate as the sample. The total flow through of 125 μl is mixed with 175 μl of Microscint-40 scintillation cocktail (Packard) and the scintillation plate is sealed with TopSeal P-foil (Packard). Scintillation plates are counted in a szintillation counter.
For the measurement of inducible NO-synthase-inhibiting potencies of compounds increasing concentrations of inhibitors were included into the incubation mixture. IC50-values were calculated from the percent inhibition at given concentrations by nonlinear least square fitting.
The inhibitory values determined for the compounds according to the invention follow from the following table A, in which the compound numbers correspond to the example numbers.

SMILES: CCN(CC)S(=O)(=O)c1ccc(-c2cnc3[nH]c(CCc4cc(OC)ccn4)nc3c2)cc1 [compound 2, N,N-Diethyl-4-{2-[2-(4-methoxypyridin-2-yl)ethyl]-3H-imidazo-[4,5-b]pyridin-6-yl}benzenesulfonamide]
- melting point: 127 to 129 °C
- IC50 [1]: 35.5 nM

SMILES: COc1ccnc(CCc2nc3cc(-c4ccc(S(=O)(=O)N(C)C)cc4)cnc3[nH]2)c1 [compound 1, 4-{2-[2-(4-Methoxypyridin-2-yl)ethyl]-3H-imidazo[4,5-b]pyridin-6-yl}-N,N-dimethyl-benzenesulfonamide]
- melting point: 217 to 218 °C
- IC50 [1]: 14.8 nM

SMILES: COc1ccnc(CCc2nc3cc(-c4ccc(S(N)(=O)=O)cc4)cnc3[nH]2)c1 [compound 4, 4-{2-[2-(4-Methoxypyridin-2-yl)ethyl]-3H-imidazo[4,5-b]pyridin-6-yl}-benzenesulfonamide]
- melting point: 216 to 218 °C
- IC50 [1]: 14.8 nM

SMILES: CCNS(=O)(=O)c1ccc(-c2cnc3[nH]c(CCc4cc(OC)ccn4)nc3c2)cc1 [compound 5, N-Ethyl-4-{2-[2-(4-methoxypyridin-2-yl)ethyl]-3H-imidazo-[4,5-b]pyridin-6-yl}benzenesulfonamide]
- melting point: 214 to 216 °C
- IC50 [1]: 24 nM

SMILES: COc1ccnc(CCc2nc3cc(-c4ccc(S(=O)(=O)N(C)C)c(F)c4)cnc3[nH]2)c1 [compound 6, 2-Fluoro-4-{2-[2-(4-methoxypyridin-2-yl)ethyl]-3H-imidazo[4,5-b]pyridin-6-yl}-N,N-dimethyl-benzenesulfonamide]
- melting point: 211 to 212 °C
- IC50 [1]: 21.4 nM

SMILES: CNS(=O)(=O)c1ccc(-c2cnc3[nH]c(CCc4cc(OC)ccn4)nc3c2)cc1 [compound 3, 4-{2-[2-(4-Methoxypyridin-2-yl)ethyl]-3H-imidazo[4,5-b]pyridin-6-yl}-N-methyl-benzenesulfonamide]
- melting point: 225 to 227 °C
- IC50 [1]: 13.8 nM

Reference: patent US7468377B2, “Imidazopyridine-derivatives as inductible no-synthase inhibitors” (Altana Pharma AG, priority 2003, dated 2008)
